Source: paper PMC10004634 (PLOS ONE, 2023)

Test system: TMD8 cells
Test: SILAC phosphoproteomic analysis
Method: For differential SILAC encoding, both cells were grown in arginine- and lysine-deficient culture medium containing light (Arg0/Lys0) or heavy (Arg10/Lys8) isotopic forms of L-arginine and L-lysine (SILAC medium). […] For mass spectrometric analysis, phosphopeptide-enriched samples were loaded onto a reversed phase analytical column, resolved by an acetonitrile gradient using a nanoflow HPLC system and directly electrosprayed via a nanoelectrospray ion source into an LTQ-Orbitrap Velos mass spectrometer (Thermo Fisher Scientific). […] A false discovery rate (FDR) of 0.01 was selected for protein and peptide identification, and a posterior error probability of ≤0.1 for each peptide-to-spectral match was required. The resulting list of phosphosites exported from the MaxQuant software was filtered for class-I sites (only serine, threonine, or tyrosine assignments with a localization probability of ≥0.75) [33] and used for all subsequent biostatistical analysis. […] Gaussian regression analysis on the histogram plot of these log2-transformed ratios was performed using Sigmaplot (version 10.0; Systat Software Inc.). The obtained values for the mean and standard deviation across the whole quantitative dataset were used to determine thresholds for significant regulation of at least ±2.5 σ. […] Furthermore, only phosphosites conforming to this criterion and showing consistent regulation in both biological replicates were considered as regulated.

For `CC#CC(=O)N1CC[C@@H](n2c(=O)n(-c3ccc(Oc4ccccc4)cc3)c3c(N)ncnc32)C1` [Tirabrutinib], the “reduction of ATF2 phosphorylation on Thr-69” value (1 μM, 1 h) was “approximately 50%”, the “reduction of ATF2 phosphorylation on Thr-71” value (1 μM, 1 h) was “approximately 50%” and the “number of downregulated phosphorylation sites” value (1 μM, 1 h, ratio <0.679) was 138. For the same compound, the “number of upregulated phosphorylation sites” value (1 μM, 1 h, ratio >1.472) was 15, the “Tirabrutinib/ctrl. rep. 1” value (AKT1S1 S183) was 0.69 and the “Tirabrutinib/ctrl. rep. 2” value (AKT1S1 S183) was 0.65. For the same compound, the “Tirabrutinib/ctrl. rep. 1” value (AKT1S1 S202) was 1.29, the “Tirabrutinib/ctrl. rep. 2” value (AKT1S1 S202) was 1.18 and the “Tirabrutinib/ctrl. rep. 1” value (AKT1S1 S203) was 1.16. The “Tirabrutinib/ctrl. rep. 2” value (AKT1S1 S203) was 1.11, the “Tirabrutinib/ctrl. rep. 1” value (AKT1S1 S211) was 0.98 and the “Tirabrutinib/ctrl. rep. 2” value (AKT1S1 S211) was 0.82. The “Regulation of Phosphorylation Site” value (AKT1S1 T246) was “↓”, the “Tirabrutinib/ctrl. rep. 1” value (AKT1S1 T246) was 0.61 and the “Tirabrutinib/ctrl. rep. 2” value (AKT1S1 T246) was 0.51. The “Tirabrutinib/ctrl. rep. 1” value (AKT1 S124) was 0.97, the “Tirabrutinib/ctrl. rep. 2” value (AKT1 S124) was 1.01 and the “Tirabrutinib/ctrl. rep. 1” value (AKT1 S129) was 1.07. For the same compound, the “Tirabrutinib/ctrl. rep. 2” value (AKT1 S129) was 0.94, the “Tirabrutinib/ctrl. rep. 1” value (AKT2 S126) was 0.95 and the “Tirabrutinib/ctrl. rep. 2” value (AKT2 S126) was 0.95. For the same compound, the “Tirabrutinib/ctrl. rep. 1” value (AKT2 T451) was 1.00, the “Tirabrutinib/ctrl. rep. 2” value (AKT2 T451) was 0.94 and the “Tirabrutinib/ctrl. rep. 1” value (ATF2 S112) was 1.07. For the same compound, the “Tirabrutinib/ctrl. rep. 2” value (ATF2 S112) was 0.83, the “Regulation of Phosphorylation Site” value (ATF2 T69) was “↓” and the “Tirabrutinib/ctrl. rep. 1” value (ATF2 T69) was 0.53. The “Tirabrutinib/ctrl. rep. 2” value (ATF2 T69) was 0.53, the “Regulation of Phosphorylation Site” value (ATF2 T71) was “↓” and the “Tirabrutinib/ctrl. rep. 1” value (ATF2 T71) was 0.50. For the same compound, the “Tirabrutinib/ctrl. rep. 2” value (ATF2 T71) was 0.53, the “Tirabrutinib/ctrl. rep. 1” value (CARD11 S483) was 0.72 and the “Tirabrutinib/ctrl. rep. 2” value (CARD11 S483) was 1.26. For the same compound, the “Tirabrutinib/ctrl. rep. 1” value (CARD11 S529) was 0.89, the “Tirabrutinib/ctrl. rep. 2” value (CARD11 S529) was 0.90 and the “Tirabrutinib/ctrl. rep. 2” value (CARD11 S554) was 0.79. The “Tirabrutinib/ctrl. rep. 1” value (CARD11 S610) was 0.99, the “Tirabrutinib/ctrl. rep. 2” value (CARD11 S610) was 0.96 and the “Tirabrutinib/ctrl. rep. 1” value (CARD11 S622) was 1.01. The “Tirabrutinib/ctrl. rep. 2” value (CARD11 S622) was 1.05, the “Tirabrutinib/ctrl. rep. 1” value (CARD11 S903) was 1.34 and the “Tirabrutinib/ctrl. rep. 2” value (CARD11 S903) was 1.37. The “Tirabrutinib/ctrl. rep. 1” value (CARD11 S942) was 0.92, the “Tirabrutinib/ctrl. rep. 2” value (CARD11 S942) was 0.78 and the “Regulation of Phosphorylation Site” value (ELK1 S501) was “↓”. For the same compound, the “Tirabrutinib/ctrl. rep. 1” value (ELK1 S501) was 0.33, the “Tirabrutinib/ctrl. rep. 2” value (ELK1 S501) was 0.48 and the “Regulation of Phosphorylation Site” value (ERF S327) was “↓”. For the same compound, the “Tirabrutinib/ctrl. rep. 1” value (ERF S327) was 0.59, the “Tirabrutinib/ctrl. rep. 2” value (ERF S327) was 0.50 and the “Tirabrutinib/ctrl. rep. 1” value (ERF T526) was 0.85. The “Tirabrutinib/ctrl. rep. 2” value (ERF T526) was 0.87, the “Regulation of Phosphorylation Site” value (ETV3 S245) was “↓” and the “Tirabrutinib/ctrl. rep. 1” value (ETV3 S245) was 0.30. For the same compound, the “Tirabrutinib/ctrl. rep. 2” value (ETV3 S245) was 0.28, the “Regulation of Phosphorylation Site” value (ETV3 S250) was “↓” and the “Tirabrutinib/ctrl. rep. 1” value (ETV3 S250) was 0.30. The “Tirabrutinib/ctrl. rep. 2” value (ETV3 S250) was 0.28, the “Tirabrutinib/ctrl. rep. 1” value (HSP27 S15) was 0.59 and the “Tirabrutinib/ctrl. rep. 2” value (HSP27 S15) was 1.31. For the same compound, the “Tirabrutinib/ctrl. rep. 1” value (HSP27 S78) was 0.67, the “Tirabrutinib/ctrl. rep. 2” value (HSP27 S78) was 0.69 and the “Regulation of Phosphorylation Site” value (HSP27 S82) was “↓”. For the same compound, the “Tirabrutinib/ctrl. rep. 1” value (HSP27 S82) was 0.62, the “Tirabrutinib/ctrl. rep. 2” value (HSP27 S82) was 0.60 and the “Tirabrutinib/ctrl. rep. 1” value (IKBKG S455) was 1.17. The “Tirabrutinib/ctrl. rep. 2” value (IKBKG S455) was 0.97, the “Regulation of Phosphorylation Site” value (MAPK1 Y187) was “↓” and the “Tirabrutinib/ctrl. rep. 1” value (MAPK1 Y187) was 0.34. The “Tirabrutinib/ctrl. rep. 2” value (MAPK1 Y187) was 0.47, the “Regulation of Phosphorylation Site” value (MAPK3 Y204) was “↓” and the “Tirabrutinib/ctrl. rep. 1” value (MAPK3 Y204) was 0.26. For the same compound, the “Tirabrutinib/ctrl. rep. 2” value (MAPK3 Y204) was 0.42, the “Tirabrutinib/ctrl. rep. 1” value (NHE1 S693) was 1.21 and the “Tirabrutinib/ctrl. rep. 2” value (NHE1 S693) was 1.00. For the same compound, the “Regulation of Phosphorylation Site” value (NHE1 S703) was “↓”, the “Tirabrutinib/ctrl. rep. 1” value (NHE1 S703) was 0.55 and the “Tirabrutinib/ctrl. rep. 2” value (NHE1 S703) was 0.51. The “Tirabrutinib/ctrl. rep. 1” value (NHE1 S785) was 1.11, the “Tirabrutinib/ctrl. rep. 2” value (NHE1 S785) was 1.29 and the “Tirabrutinib/ctrl. rep. 1” value (NHE1 S796) was 0.62. For the same compound, the “Tirabrutinib/ctrl. rep. 2” value (NHE1 S796) was 0.78, the “Tirabrutinib/ctrl. rep. 1” value (PEA15 S82) was 0.88 and the “Tirabrutinib/ctrl. rep. 2” value (PEA15 S82) was 0.96. For the same compound, the “Regulation of Phosphorylation Site” value (PEA15 S137) was “↓”, the “Tirabrutinib/ctrl. rep. 1” value (PEA15 S137) was 0.35 and the “Tirabrutinib/ctrl. rep. 2” value (PEA15 S137) was 0.29. The “Tirabrutinib/ctrl. rep. 1” value (PIK3AP1 S642) was 0.94, the “Tirabrutinib/ctrl. rep. 2” value (PIK3AP1 S642) was 1.03 and the “Tirabrutinib/ctrl. rep. 1” value (PIK3AP1 S759) was 0.83. For the same compound, the “Tirabrutinib/ctrl. rep. 2” value (PIK3AP1 S759) was 0.69, the “Tirabrutinib/ctrl. rep. 1” value (PIK3AP1 T151) was 1.07 and the “Tirabrutinib/ctrl. rep. 2” value (PIK3AP1 T151) was 1.02. The “Regulation of Phosphorylation Site” value (PIK3AP1 Y570) was “↓”, the “Tirabrutinib/ctrl. rep. 1” value (PIK3AP1 Y570) was 0.51 and the “Tirabrutinib/ctrl. rep. 2” value (PIK3AP1 Y570) was 0.41. For the same compound, the “Tirabrutinib/ctrl. rep. 1” value (PLCG2 S160) was 0.86, the “Tirabrutinib/ctrl. rep. 2” value (PLCG2 S160) was 1.09 and the “Tirabrutinib/ctrl. rep. 1” value (PLCG2 S443) was 0.84. For the same compound, the “Tirabrutinib/ctrl. rep. 2” value (PLCG2 S443) was 1.41, the “Tirabrutinib/ctrl. rep. 1” value (PLCG2 Y753) was 0.79 and the “Tirabrutinib/ctrl. rep. 2” value (PLCG2 Y753) was 0.55. The “Regulation of Phosphorylation Site” value (PRKCB S241) was “↑”, the “Tirabrutinib/ctrl. rep. 1” value (PRKCB S241) was 3.02 and the “Tirabrutinib/ctrl. rep. 2” value (PRKCB S241) was 1.76. For the same compound, the “Tirabrutinib/ctrl. rep. 1” value (PRKCB S673) was 0.88, the “Tirabrutinib/ctrl. rep. 2” value (PRKCB S673) was 0.60 and the “Tirabrutinib/ctrl. rep. 1” value (PRKCB T500) was 0.71. For the same compound, the “Tirabrutinib/ctrl. rep. 2” value (PRKCB T500) was 1.08, the “Tirabrutinib/ctrl. rep. 1” value (PRKCB T641) was 1.00 and the “Tirabrutinib/ctrl. rep. 2” value (PRKCB T641) was 1.01. The “Tirabrutinib/ctrl. rep. 1” value (PRKCB T642) was 0.99, the “Tirabrutinib/ctrl. rep. 2” value (PRKCB T642) was 1.92 and the “Tirabrutinib/ctrl. rep. 1” value (PRKD2 S198) was 0.55. The “Tirabrutinib/ctrl. rep. 2” value (PRKD2 S198) was 0.69, the “Regulation of Phosphorylation Site” value (PRKD2 S206) was “↓” and the “Tirabrutinib/ctrl. rep. 1” value (PRKD2 S206) was 0.32. The “Tirabrutinib/ctrl. rep. 2” value (PRKD2 S206) was 0.48, the “Regulation of Phosphorylation Site” value (PRKD2 S214) was “↓” and the “Tirabrutinib/ctrl. rep. 1” value (PRKD2 S214) was 0.46. The “Tirabrutinib/ctrl. rep. 2” value (PRKD2 S214) was 0.48, the “Regulation of Phosphorylation Site” value (PRKD2 S710) was “↓” and the “Tirabrutinib/ctrl. rep. 1” value (PRKD2 S710) was 0.45. For the same compound, the “Tirabrutinib/ctrl. rep. 2” value (PRKD2 S710) was 0.56, the “Tirabrutinib/ctrl. rep. 1” value (PRKD3 S31) was 0.76 and the “Tirabrutinib/ctrl. rep. 2” value (PRKD3 S31) was 0.85. The “Tirabrutinib/ctrl. rep. 1” value (PRKD3 S213) was 1.40, the “Tirabrutinib/ctrl. rep. 2” value (PRKD3 S213) was 1.11 and the “Tirabrutinib/ctrl. rep. 1” value (PRKD3 S364) was 0.98. The “Tirabrutinib/ctrl. rep. 2” value (PRKD3 S364) was 0.97, the “Tirabrutinib/ctrl. rep. 1” value (PRKD3 S395) was 0.77 and the “Tirabrutinib/ctrl. rep. 2” value (PRKD3 S395) was 0.65. The “Regulation of Phosphorylation Site” value (PRKD3 S735) was “↓”, the “Tirabrutinib/ctrl. rep. 1” value (PRKD3 S735) was 0.41 and the “Tirabrutinib/ctrl. rep. 2” value (PRKD3 S735) was 0.43. The “Regulation of Phosphorylation Site” value (RAF1 S1055) was “↓”, the “Tirabrutinib/ctrl. rep. 1” value (RAF1 S1055) was 0.61 and the “Tirabrutinib/ctrl. rep. 2” value (RAF1 S1055) was 0.61. The “Tirabrutinib/ctrl. rep. 1” value (RELA S203) was 0.85, the “Tirabrutinib/ctrl. rep. 2” value (RELA S203) was 1.23 and the “Tirabrutinib/ctrl. rep. 1” value (RELA S238) was 0.84. The “Tirabrutinib/ctrl. rep. 2” value (RELA S238) was 1.07, the “Tirabrutinib/ctrl. rep. 1” value (RPS6KA1 S230) was 0.93 and the “Tirabrutinib/ctrl. rep. 2” value (RPS6KA1 S230) was 0.89. For the same compound, the “Regulation of Phosphorylation Site” value (RPS6KA1 S741) was “↓”, the “Tirabrutinib/ctrl. rep. 1” value (RPS6KA1 S741) was 0.61 and the “Tirabrutinib/ctrl. rep. 2” value (RPS6KA1 S741) was 0.59. The “Tirabrutinib/ctrl. rep. 1” value (RPS6KA1 T234) was 0.93, the “Tirabrutinib/ctrl. rep. 2” value (RPS6KA1 T234) was 0.96 and the “Tirabrutinib/ctrl. rep. 1” value (TSC2 S1411) was 1.07. The “Tirabrutinib/ctrl. rep. 2” value (TSC2 S1411) was 1.15, the “Tirabrutinib/ctrl. rep. 1” value (TSC2 S1418) was 1.12 and the “Tirabrutinib/ctrl. rep. 2” value (TSC2 S1418) was 1.10. The “Tirabrutinib/ctrl. rep. 1” value (TSC2 S1799) was 1.15, the “Tirabrutinib/ctrl. rep. 2” value (TSC2 S1799) was 0.89 and the “Regulation of Phosphorylation Site” value (YBX1 S102) was “↓”. For the same compound, the “Tirabrutinib/ctrl. rep. 1” value (YBX1 S102) was 0.60, the “Tirabrutinib/ctrl. rep. 2” value (YBX1 S102) was 0.46 and the “Tirabrutinib/ctrl. rep. 1” value (YBX1 S165) was 0.91. The “Tirabrutinib/ctrl. rep. 2” value (YBX1 S165) was 0.96 and the “Tirabrutinib/ctrl. rep. 1” value (YBX1 S167) was 1.07.
